Earlier results on three compounds are cited in publication PMC5862788 (Antiviral therapy, 2018).

Where two headings read alike, the source gives them in different places.

This data set has as its system HCV.

`COC(=O)N[C@H](C(=O)N1CCC[C@H]1c1nc(-c2ccc(-c3ccc(-c4c[nH]c([C@@H]5CCCN5C(=O)[C@@H](NC(=O)OC)C(C)C)n4)cc3)cc2)c[nH]1)C(C)C` [daclatasvir]: the “predicted effectiveness ε” value (200 mg tid) is reported as 0.996.

For the compound `CC(C)(C)OC(=O)N[C@H]1CCCCC/C=C\[C@@H]2C[C@@]2(C(=O)NS(=O)(=O)C2CC2)NC(=O)[C@@H]2C[C@@H](OC(=O)N3Cc4cccc(F)c4C3)CN2C1=O` [danoprevir], the “predicted effectiveness ε” value is 0.976 (100 mg bid); 0.992 (monotherapy, 200 mg tid and 300 mg bid).

Regarding `CC(C)C(=O)OC[C@H]1O[C@@H](n2ccc(N)nc2=O)[C@](C)(F)[C@@H]1OC(=O)C(C)C` [mericitabine], under “1500 mg bid”, the “predicted effectiveness ε” value is 0.997.
